Columns and labels:
[1] = test system: patients with left ventricular systolic dysfunction undergoing cardiac surgery requiring cardiopulmonary bypass; assay: Double-blind, randomized, placebo-controlled clinical trial of levosimendan (Example 1); type: in vivo, human
Protocol: A randomized, double-blind, placebo-controlled, multicenter study of levosimendan is conducted in subjects with pre-existing left ventricular systolic dysfunction (documented (i) LVEF≦25% in CABG surgery patients, or (ii) LVEF≦35% in CABG with aortic valve surgery patients, CABG with mitral valve surgery patients, or isolated mitral valve surgery patients) with or without heart failure (NYHA functional Class I-IV), undergoing (1) CABG surgery, (2) CABG with aortic valve surgery, (3) CABG with mitral valve surgery, or (4) isolated mitral valve surgery.
All patients are randomized with planned CPB. Approximately 760 subjects are enrolled in the study. Subjects are randomly assigned to receive either levosimendan or a matching placebo in a 1:1 ratio. The study is divided into a screening phase, a double-blind treatment phase, a double-blind post-treatment and follow-up phase from hospital discharge through Day 30. Day 0 is the day of study drug (levosimendan or matching placebo) initiation. All randomly assigned subjects are followed for 90 days, including subjects who were randomly assigned to treatment but not treated.
In the double-blind treatment phase, every attempt is made to start treatment with study drug as soon as possible prior to surgery. However, in all cases study drug is initiated after arterial line insertion and before skin incision. If a Swan-Ganz catheter is planned, it is preferable to insert it prior to study drug initiation. Study drug is administered as described below. Subjects who were randomly assigned to treatment but not treated will be followed (a) through Day 5 for perioperative MI and the need for IABP/LVAD/ECMO, (b) through postoperative […] for postoperative MI (Day 6-10) and postoperative dialysis, and (c) the occurrence of all-cause mortality through Day 90. All subjects may receive additional standard of care medications including inotropes, vasopressors, vasopressin, antiarrhythmics, diuretics, nitrates, and/or nitric oxide as needed. Due to the potential hypotensive effects of the study drug, the concomitant use of vasodilatory drugs should be used with caution.
Subjects are assigned to 1 of 2 treatment groups (levosimendan 0.2 μg/kg/min for first hour, followed by 0.1 μg/kg/min for the next 23 hours or matching placebo) in a 1:1 ratio based on a computer-generated randomization schedule prepared before the start of the study by an independent statistical group not otherwise involved in the conduct or analysis of the study.
The concentration of the diluted infusion is about 50 μg/mL in 5% dextrose (12.5 mg/255 mL in a 250 mL bag; 25 mg/510 mL, 2 vials in a 500 mL bag). The i.v. tubing is primed to fill the volume to the i.v. entry site before starting the infusion. The diluted infusion is administered intravenously by a peripheral or central route. No other treatments are administered via the same line, and no bolus of study drug is administered. Study drug is infused as a continuous infusion of 0.2 μg/kg/min over the first 60 minutes. After 1 hour, the flow rate is decreased to a continuous infusion of 0.1 μg/kg/min. This dose of study drug is continued for the next 23 hours. On completion of the 24-hour infusion period, the study drug infusion is switched off abruptly.
All-cause mortality data (e.g., the cause and date of death) is collected for all subjects up to Day 30 (+5). A follow-up call documents mortality between Day 30 visit and Day 90. […]

[2] = cited from earlier work; for formation of the metabolite: patients undergoing cardiac surgery
[3] = through Day 5, same 24-hour infusion regimen

| SMILES | rate of all-cause death at Day 30 as compared to placebo ([1]; Day 30, same 24-hour infusion regimen) | peri- and postoperative morbidity and mortality as compared to placebo ([1]; levosimendan i.v. 0.2 μg/kg/min for first hour, then 0.1 μg/kg/min for 23 hours, started before skin incision, plus standard care) | rate of perioperative MI as compared to placebo [1, 3] | use of mechanical assist (IABP, LVAD, or ECMO) as compared to placebo [1, 3] | need for dialysis as compared to placebo ([1]; through Day 30, same 24-hour infusion regimen) | share of total dose metabolised by the minor pathway (reduction in the intestine to OR-1855) ([2]; of the total levosimendan dose) | formation of the metabolite [2] | time at which maximum concentrations are seen ([2]; after starting a 24-hour infusion, heart failure patients) | elimination half-life ([2]; heart failure patients) |
| --- | --- | --- | --- | --- | --- | --- | --- | --- | --- |
| CC1CC(=O)NN=C1c1ccc(NN=C(C#N)C#N)cc1 (single isomer, unassigned; (-)) [levosimendan, (−)-enantiomer of [[4-(1,4,5,6-tetrahydro-4-methyl-6-oxo-3-pyridazinyl)phenyl]hydrazono]prop anedinitrile] | smaller | reduces | smaller | reduced | lesser | approximately 6% | – | – | – |
| C[C@@H]1CC(=O)NN=C1c1ccc(N)cc1 [OR-1855] | – | – | – | – | – | – | delayed | – | – |
| CC(=O)Nc1ccc(C2=NNC(=O)C[C@H]2C)cc1 [OR-1896] | – | – | – | – | – | – | delayed | 2 to 4 days | 70 to 80 h |
